The values below come from patent US11304926B2, “Application of transient receptor potential cation channel TRPV3 in developing drug for preventing or treating psoriasis” (CHINA PHARMACEUTICAL UNIVERSITY, priority 2019, dated 2022).

“Also recorded” adds a separate entry of the source.

For this test, the system named is mouse psoriasis model induced by 5% IMQ. Briefly: PASI score of mouse psoriasis model induced by imiquimod under drug intervention. It counts as in vivo. Conditions: for PASI score: n = 8, mean ± SD. From the text:
16 C57BL/6 mice, with half male and half female were purchased from the Experimental Animal Center of Nanjing Medical University, wherein weights of the mice ranged from 18 g to 20 g. Back hair of the mice was shaved off, and then the mice were randomly divided into 2 groups (8 mice in each group) according to male and female genders. Before experiment, the mice were placed in a quiet environment kept away from strong light for 3 days to adapt to the environment, a ratio of an illuminating time to a dark time was 1:1, a room temperature was controlled at 25° C., a humidity was 55%, and the mice could eat and drink freely. 62.5 mg of 5% (0.1 g:2 g) imiquimod ointment (Zhuhai United Laboratories Co., Ltd.) was continuously applied to back skins of the mice for 6 days to induce a psoriasis-like lesion, while the same dose of vaseline ointment was given to the control group.
The clinical symptom of the mouse psoriasis model was evaluated by a PASI scoring standard from three indicators of erythema, scale and infiltration thickening. The scores ranged from 0 point to 4 points, and a total score was obtained by adding scores of the three indicators. The PASI scoring standard was as follows: 0 point referred to no symptom; 1 point referred to a mild degree; 2 points referred to a moderate degree; 3 points referred to a severe degree; and 4 points referred to an extremely severe degree. The PASI evaluation was conducted daily before the IMQ ointment was applied.
C57BL/6 mice, with half male and half female were purchased from the Experimental Animal Center of Nanjing Medical University, wherein weights of the mice ranged from 18 g to 20 g. The C57BL/6 mice were randomly divided into 4 groups (8 mice in each group). Mouse psoriasis models were established as described in Embodiment 2 (1). […]
Back skins of the mice were photographed and recorded on the 1st, 3rd and 5th days after modeling.

The mark [1] stands for this setting: subcutaneous injection, 5% IMQ model.

For the compound `O=c1cc(-c2ccc(O)cc2)oc2cc(O)c(O)c(O)c12` [Scutellarein], the PASI score is, setting by setting: (day 1, 0.1‰ scutellarein s.c. 100 μL twice a day + imiquimod) 0.0 ± 0.0; (day 1, 0.2‰ scutellarein s.c. 100 μL twice a day + imiquimod) 0.0 ± 0.0; (day 2, 0.1‰ scutellarein s.c. 100 μL twice a day + imiquimod) 0.5 ± 0.6; (day 2, 0.2‰ scutellarein s.c. 100 μL twice a day + imiquimod) 0.0 ± 0.0; (day 3, 0.1‰ scutellarein s.c. 100 μL twice a day + imiquimod) 1.8 ± 0.9; (day 3, 0.2‰ scutellarein s.c. 100 μL twice a day + imiquimod) 0.5 ± 0.6. The PASI score (day 4, 0.1‰ scutellarein s.c. 100 μL twice a day + imiquimod) is given as 1.8 ± 1.0; the PASI score (day 4, 0.2‰ scutellarein s.c. 100 μL twice a day + imiquimod) was found to be 0.8 ± 0.9; the PASI score (day 5, 0.1‰ scutellarein s.c. 100 μL twice a day + imiquimod) was 3.0 ± 0.8; the PASI score (day 5, 0.2‰ scutellarein s.c. 100 μL twice a day + imiquimod) was 2.0 ± 1.2. In addition, the “occurrence of the lesion induced by imiquimod” value under setting [1] was “delay occurrence of the lesion”. The “psoriasis-like lesion on the back skins of the mice (appearance)” value under setting [1] is given as “could relieve the psoriasis-like lesion; also recorded: can improve the lesion; also recorded: significantly relieve”.
